According to patent US10160986B2, “Chemoenzymatic synthesis of heparin and heparan sulfate analogs” (The Regents of the University of California, priority 2011, dated 2018):
Read-outs that look alike come from different tables or passages of the source.

Assays:
NahK_ATCC15697 = NahK_ATCC15697 (Bifidobacterium longum, UniProt B7GN78); experiment: Substrate specificity CE assay, NahK_ATCC15697; assay type: biochemical, Bifidobacterium infantis
Experimental: (§1) Substrates specificity assays. GlcNAc, GalNAc, and their derivatives (1 mM) were used as substrates in the presence of ATP (1 mM) and MgCl2 (5 mM) in a Tris-HCl buffer (pH 8.0, 200 mM) to analyze the substrate specificity of NahKs. Two concentrations (0.75 μM or 15 μM) of each NahK were used and the reactions were allowed to proceed for 10 min (for 0.75 μM NahK) or 30 min (for 15 μM NahK) at 37° C. […] All other conditions were the same as for GlcNAc, GalNAc, and their derivatives.
(§2) Capillary electrophoresis (CE) assays. Based on the detection of ADP and ATP in the reaction mixture by a UV detector, a capillary electrophoresis-based method was developed to directly measure the formation of ADP and N-acetylhexosamine-1-phosphate from ATP and N-acetylhexosamine for characterizing the activities of NahKs.

NahK_ATCC55813 = NahK_ATCC55813 (Bifidobacterium longum subsp. longum, UniProt E8MF12, D7V/R348H); assay type: biochemical; set-up: made in house; host or cells: E. coli BL21(DE3)
Experimental: as §1, §2

NahK = experiment: Kinase reaction monitored by CE (ATP to ADP), NahK; assay type: biochemical, Bifidobacterium infantis; settings: monosaccharide 15 mM, ATP 18 mM, 37° C.
Experimental: Capillary electrophoresis (CE) and thin-layer chromatograph (TLC) assays for kinase reactions. Kinase reactions were carried out at 37° C. in a total volume of 30 μL in Tris-HCl buffer (100 mM, pH 8.0) containing monosaccharide (15 mM), ATP (18 mM, 1.2 eq.), MgCl2 (10 mM), and a kinase (6 μg). These conditions were similar to those used for preparative-scale synthesis. After 1 hr, 4 hr, and 24 hr, an aliquot of 8 μL was withdrawn from each reaction mixture, boiled in a water bath for 5 min and stored at −20° C. until being analyzed by capillary electrophoresis (CE) and TLC. For TLC analysis, 0.5 μL of each sample was directly spotted on TLC plates, developed using suitable developing solvents, and stained with anisaldehyde sugar stain. For CE analysis, 1.5 μL of each sample was diluted into 30 μL and subjected to CE analysis as described above for pH profile studies.
General methods for compound purification and characterization. Chemicals were purchased and used without further purification. ^1H NMR and ^13C NMR spectra were recorded on a Varian Mercury 600 NMR spectrometer. High resolution electrospray ionization (ESI) mass spectra were obtained in negative mode using Thermo Electron LTQ-Orbitrap mass spectrometer. Silica gel 60 Å (Sorbent Technologies) was used for flash column chromatography. Thin-layer chromatography (TLC) was performed on silica gel plates 60 GF254 (Sorbent Technologies) using anisaldehyde sugar stain for detection. Gel filtration chromatography was performed with a column (100 cm×2.5 cm) packed with BioGel P-2 Fine resins (Bio-Rad). GlcN3 (T6-9) (Lau K, Thon, V, Yu H, Ding L, Chen Y, Muthana M M, Wong D, Huang R, and Chen X. Chem. Commun. 2010, 46, 6066-6068), ManF (T6-11) (Burkart M D, Zhang Z, Hung S-C, and Wong C-H. J. Am. Chem. Soc. 1997, 119, 11743-11746; Cao H, Li Y, Lau K, Muthana S, Yu H, Cheng J, Chokhawala H A, Sugiarto G, Zhang L, and Chen X. Org. Biomol. Chem. 2009, 7, 5137-5145), GalN3 (T6-4) and ManN3 (T6-14) (Yu H, Yu H, Karpel R, cand Chen X. Bioorg. Med. Chem. 2004, 12, 6427-6435) were previously synthesized using reported methods. NahK_ATCC15697, EcGalK, SpGalK, and PmPpA were overexpressed as described previously.

[1] = Glc, Gal, Man, ManNAc and derivatives, enzyme 15, 37° C. for 30 min (Table 3)
[2] = 0.75 μM enzyme, 10 min at 37° C., substrate 1 mM, ATP 1 mM
[3] = 15 μM enzyme, 30 min at 37° C., substrate 1 mM, ATP 1 mM (Table 2)
[4] = Glc, Gal, Man, ManNAc and derivatives, enzyme 15, 37° C. for 30 min (Table 3), listed as drawing 49

SMILES | Percentage Conversion (NahK_ATCC15697; [1]) [%] | Percentage Conversion (NahK_ATCC55813; [1]) [%] | Percentage Conversion (NahK_ATCC15697; [2]) [%] | Percentage Conversion (NahK_ATCC55813; [2]) [%] | Percentage Conversion (NahK_ATCC15697; [3]) [%] | Percentage Conversion (NahK_ATCC55813; [3]) [%] | further results
COCC(=O)NC1C(O)OC(CO)[C@@H](O)C1O (some centres unmarked) | 12.0 ± 0.4 | 7.4 ± 0.3 | – | – | – | – | –
[N-]=[N+]=NCC(=O)NC1C(O)OC(CO)[C@H](O)C1O (some centres unmarked) [GalNAcN3] | – | – | 9.9 ± 0.6 | 21.0 ± 1.2 | – | – | –
[N-]=[N+]=NCC(=O)NC1C(O)OC(CO)[C@@H](O)C1O (some centres unmarked) [GlcNAcN3] | – | – | 11.5 ± 1.0 | 22.8 ± 0.4 | – | – | –
O=C(NC1C(O)OC(CO)[C@H](O)C1O)c1ccccc1 (some centres unmarked) [GalNBz] | – | – | 0 | 0 | 62.2 ± 1.0 | 51.9 ± 0.5 | –
O=C(CO)NC1C(O)OC(CO)[C@@H](O)C1O (some centres unmarked) | 7.6 ± 0.1 | 5.4 ± 0.2 | – | – | – | – | –
O=S(=O)(O)NC1C(O)OC(CO)[C@@H](O)C1O (some centres unmarked) [2-N-sulfo-glucose] | – | – | 0 | 0 | 6.4 ± 0.2 | 4.0 ± 0.1 | –
COC1C(O)OC(CO)[C@@H](O)C1O (some centres unmarked) [2Me-Man] | 9.4 ± 0.5 | 0 | – | – | – | – | –
O=C(CF)NC1C(O)OC(CO)[C@@H](O)C1O (some centres unmarked) | 12.0 ± 0.1 | 9.1 ± 0.2 | – | – | – | – | –
[N-]=[N+]=NC1C(O)OC(CO)[C@@H](O)C1O (some centres unmarked) [2N3-Man] | 53.3 ± 0.1 | 40.2 ± 0.2 | – | – | – | – | ATP Conversion (NahK; 1 hr): 34.9%; ATP Conversion (NahK; 4 hr): 65.9%; ATP Conversion (NahK; 24 hr): 76.4%
OCC1CC(O)C(O)C(O)O1 (centres unmarked) [4-deoxyMan] | 37.1 ± 0.2 | 23.9 ± 0.1 | – | – | – | – | –
OCC1OC(O)C[C@@H](O)[C@@H]1O (some centres unmarked) [2-deoxy glucose] | 44.8 ± 0.2 | 28.4 ± 0.1 | – | – | – | – | ATP Conversion (NahK; 1 hr): 36.8%; ATP Conversion (NahK; 4 hr): 69.6%; ATP Conversion (NahK; 24 hr): 79.4%
CC(=O)NC1C(O)OC(CN=[N+]=[N-])[C@@H](O)C1O (some centres unmarked) [6-azido-6-deoxy-GlcNAc] | – | – | 0 | 0 | 37.2 ± 0.5 | 23.4 ± 0.1 | –
O=C(NC1C(O)OC(COS(=O)(=O)O)[C@@H](O)C1O)C(F)(F)F (some centres unmarked) [6-O-sulfo-N-trifluoroacetyl glucosamine] | – | – | 0 | 0 | 7.2 ± 0.1 | 3.3 ± 0.2 | –
CC(=O)NC1C(O)OC(C)[C@@H](O)C1O (some centres unmarked) [6-deoxy-GlcNAc] | – | – | 4.4 ± 1.2 | 2.1 ± 0.2 | 41.8 ± 0.3 | 36.3 ± 0.3 | –
CCCC(=O)NC1C(O)OC(CO)[C@@H](O)C1O (some centres unmarked) [GlcNBu] | – | – | 20.9 ± 0.6 | 35.0 ± 2.0 | – | – | –
[N-]=[N+]=N[C@@H](C=O)[C@@H](OS(=O)(=O)O)[C@H](O)[C@H](O)CO [3-O-sulfo-2-azido-2-deoxy glucose] | – | – | 0 | 0 | 4.9 ± 0.1 | 3.9 ± 0.1 | –
CCCC(=O)NC1C(O)OC(CO)[C@H](O)C1O (some centres unmarked) [GalNBu] | – | – | 12.1 ± 0.3 | 24.0 ± 0.1 | – | – | –
OCC1OC(O)C(O)[C@@H](O)[C@@H]1O (some centres unmarked) [Man, mannose] | – | – | – | – | – | – | Percentage Conversion (NahK_ATCC15697; [4]): 68.0 ± 1.7%; Percentage Conversion (NahK_ATCC55813; [4]): 37.1 ± 0.4%; ATP Conversion (NahK; 1 hr, listed as T6-11 Man): 29.6%; ATP Conversion (NahK; 4 hr, listed as T6-11 Man): 69.3%; ATP Conversion (NahK; 24 hr, listed as T6-11 Man): 75.1%
O=C(NC1C(O)OC(CO)[C@@H](O)C1O)c1ccccc1 (some centres unmarked) [GlcNBz] | – | – | 10.3 ± 0.4 | 5.2 ± 0.2 | – | – | –
N[C@@H]1C(O)O[C@H](CO)[C@@H](O)[C@@H]1O (some centres unmarked) [T6-13 ManNH2, mannosamine] | – | – | – | – | – | – | ATP Conversion (NahK; 1 hr): 10.3%; ATP Conversion (NahK; 4 hr): 22.8%; ATP Conversion (NahK; 24 hr): 58.0%
O=C(NC1C(O)OC(CO)[C@H](O)C1O)C(F)(F)F (some centres unmarked) [GalNTFA] | – | – | 11.2 ± 1.6 | 21.8 ± 0.2 | – | – | –
COCC1OC(O)C(NC(C)=O)[C@@H](O)[C@@H]1O (some centres unmarked) [N-acetyl-6-O-methylmannosamine] | 32.6 ± 0.1 | 28.9 ± 0.1 | – | – | – | – | –
CC(=O)N[C@@H]1C(O)O[C@H](CO)[C@@H](O)[C@@H]1O (some centres unmarked) [N-acetylmannosamine] | 8.9 ± 0.1 | 5.5 ± 0.1 | – | – | – | – | ATP Conversion (NahK; 1 hr): 11.4%; ATP Conversion (NahK; 4 hr): 26.1%; ATP Conversion (NahK; 24 hr): 73.8%
CC(=O)NC1C(O)OC(CO)[C@@H](O)[C@@H]1O (some centres unmarked) [GlcNAc, N-acetylglucosamine] | – | – | 35.4 ± 0.1 | 42.3 ± 0.2 | – | – | ATP Conversion (NahK; 1 hr): 72.6%; ATP Conversion (NahK; 4 hr): 84.6%; ATP Conversion (NahK; 24 hr): 85.5%
CC(=O)NC1C(O)OC(COS(=O)(=O)O)[C@@H](O)C1O (some centres unmarked) [6-O-sulfo-GlcNAc] | – | – | 0 | 0 | 11.7 ± 0.2 | 6.6 ± 0.1 | –
NC1C(O)OC(CO)[C@@H](O)[C@@H]1O (some centres unmarked) [2-amino-2-deoxy-glucose] | – | – | 0 | 0 | 15.0 ± 0.1 | 8.4 ± 0.1 | ATP Conversion (NahK; 1 hr): 11.9%; ATP Conversion (NahK; 4 hr): 28.0%; ATP Conversion (NahK; 24 hr): 67.1%
[N-]=[N+]=NC1C(O)OC(COS(=O)(=O)O)[C@@H](O)[C@@H]1O (some centres unmarked) [6-O-sulfo-2-azido-2-deoxy glucose] | – | – | 0 | 0 | 6.9 ± 0.1 | 4.4 ± 0.1 | –
O=C(NC1C(O)OC(CO)[C@@H](O)C1O)C(F)(F)F (some centres unmarked) [GlcNTFA] | – | – | 10.7 ± 0.9 | 16.2 ± 0.9 | – | – | –
[N-]=[N+]=NCC(=O)N[C@@H]1C(O)O[C@H](CO)[C@@H](O)[C@@H]1O (some centres unmarked) [N-azidoacetylmannosamine] | 20.3 ± 0.3 | 18.6 ± 0.4 | – | – | – | – | –
